Experimental data published in US4426519A, “7-(2-Amino-4-thiazolyl)-acetamido cephalosporanic acids” (Roussel Uclaf, priority 1979, dated 1984).
Counter-ions that a name gives are not always drawn. Like-named read-outs stand apart in the source and are kept apart here.

How the values were obtained:
Assay in all cases: MIC, dilution in liquid medium
Format in all cases: cell-based
[1] = tested on: Bacillus subtilis ATCC 6 633
Procedure: (§1) The method used was a dilution of a liquid medium where a series of tubes received the same quantity of a sterile nutritive media and increasing doses of the test compounds were placed therein. Then each tube was seeded with a bacterial strain and was incubated for 24 to 48 hours at 37° C. in an oven. The increasing inhibition was determined by transillulumination to determine the minimum inhibiting concentration (MIC in μg/ml) and the results are reported in the following Tables.

[2] = tested on: Escherichia Coli Resistant Tetracycline ATCC 11 303
Procedure: as §1

[3] = tested on: Escherichia Coli Exp. TO26 B6
Procedure: as §1

[4] = tested on: Escherichia Coli Resistant Gentamycine, Tobramycine R 55 123 D
Procedure: as §1

[5] = tested on: Streptococcus pyogenes A 561
Procedure: as §1

[6] = tested on: Klebsiella pneumoniae 2 536 Resistant Gentamycine
Procedure: as §1

[7] = tested on: Klebsiella pneumoniae Exp. 52 145
Procedure: as §1

[8] = tested on: Serratia Resistant Gentamycine 2 532
Procedure: as §1

Providencia Du 48 = settings: read-out: MIC
Procedure: as §1

[9] = tested on: Staphylococcus aureus exp.n°54 146
Procedure: as §1

[10] = tested on: Proteus mirabilis (indol-) A 235
Procedure: as §1

[11] = tested on: Staphylococcus aureus UC 1 128 Pen-resistant
Procedure: as §1

[12] = tested on: Salmonella typhimurium 420; settings: Salmonella enterica
Procedure: as §1

[13] = tested on: Escherichia Coli sensitive Tetracycline ATCC 9 637
Procedure: as §1

[14] = tested on: Staphylococcus aureus ATCC 6 538 Pen Sensitive
Procedure: as §1

Enterobacter cloacae 681 = tested on: Enterobacter cloacae 681
Procedure: as §1

`[N-]=[N+]=NCC1=C(C(=O)O)N2C(=O)C(NC(=O)/C(=N\OCCSC(=N)N)c3csc(N)n3)C2SC1` (stereo not drawn) [Example 5, Internal salt of syn isomer of 3-azidomethyl-7-[2-(2-amino-4-thiazolyl)-2-(2-aminoiminomethylthioethoxyimino)-acetamido]-ceph-3-eme-4-carboxylic acid] was tested, and the MIC ([1]; ATCC6, 24 h, read-out: MIC) was 2 µg/mL, the MIC ([1]; ATCC6, 48 h) was 3 µg/mL and the MIC ([2]; ATCC11, 24 h) was 0.2 µg/mL. The MIC ([2]; ATCC11, 48 h) was 0.2 µg/mL, the MIC ([3]; 24 h) was 0.5 µg/mL and the MIC ([3]; 48 h) was 0.5 µg/mL. The MIC ([4]; 24 h, read-out: MIC) was 1 µg/mL, the MIC ([4]; 48 h, read-out: MIC) was 1 µg/mL and the MIC ([5]; A561, 24 h) was under 0.02 µg/mL. For the same compound, the MIC ([5]; A561, 48 h) was 0.05 µg/mL, the MIC ([6]; 24 h, read-out: MIC) was 2 µg/mL and the MIC ([6]; 48 h) was 3 µg/mL. The MIC ([7]; EXP.52145, 24 h, read-out: MIC) was 1 µg/mL, the MIC ([7]; EXP.52145, 48 h, read-out: MIC) was 1 µg/mL and the MIC ([8]; 24 h, read-out: MIC) was 1 µg/mL. It also gave an MIC ([8]; 48 h, read-out: MIC) of 1 µg/mL, an MIC (Providencia Du 48; DU48, 24 h) of 10 µg/mL and an MIC (Providencia Du 48; DU48, 48 h) of 10 µg/mL. For the same compound, the MIC ([9]; 24 h, read-out: MIC) was 1 µg/mL, the MIC ([9]; 48 h, read-out: MIC) was 2 µg/mL and the MIC ([10]; 24 h) was 0.2 µg/mL. For the same compound, the MIC ([10]; 48 h) was 0.2 µg/mL, the MIC ([11]; UC1, 24 h, read-out: MIC) was 1 µg/mL and the MIC ([11]; UC1, 48 h, read-out: MIC) was 2 µg/mL. It also gave an MIC ([12]; 24 h, read-out: MIC) of 1 µg/mL, an MIC ([12]; 48 h, read-out: MIC) of 1 µg/mL and an MIC ([13]; ATCC9, 24 h, read-out: MIC) of 2 µg/mL. For the same compound, the MIC ([13]; ATCC9, 48 h, read-out: MIC) was 2 µg/mL, the MIC ([14]; ATCC6, 24 h, read-out: MIC) was 1 µg/mL and the MIC ([14]; ATCC6, 48 h, read-out: MIC) was 1 µg/mL. It also gave an MIC (Enterobacter cloacae 681; Enterobacter cloacae, 681, 24 h) of 3 µg/mL and an MIC (Enterobacter cloacae 681; Enterobacter cloacae, 681, 48 h) of 3 µg/mL.
With `CC(=O)OCC1=C(C(=O)O)N2C(=O)C(NC(=O)/C(=N\OCCSC(=N)NN)c3csc(N)n3)C2SC1` (stereo not drawn) [Example 8, Internal salt of syn isomer of 3-acetoxymethyl-7-[2-(2-amino-4-thiazolyl)-2-(2-iminohydrazinomethylthioethoxyimino)acetamido]-ceph-3-eme-4-carboxylic acid] the MIC ([1]; ATCC6, 24 h) was 1 µg/mL, the MIC ([1]; ATCC6, 48 h) was 3 µg/mL and the MIC ([2]; ATCC11, 24 h) was 0.5 µg/mL. The MIC ([2]; ATCC11, 48 h) was 0.5 µg/mL, the MIC ([3]; 24 h) was 1 µg/mL and the MIC ([3]; 48 h) was 1 µg/mL. It also gave an MIC ([4]; 24 h) of 1 µg/mL, an MIC ([4]; 48 h) of 1 µg/mL and an MIC ([5]; A561, 24 h) of 0.02 µg/mL. For the same compound, the MIC ([5]; A561, 48 h) was 0.05 µg/mL, the MIC ([6]; 24 h) was 5 µg/mL and the MIC ([6]; 48 h, read-out: MIC) was 10 µg/mL. It also gave an MIC ([7]; EXP.52145, 24 h) of 1 µg/mL, an MIC ([7]; EXP.52145, 48 h) of 1 µg/mL and an MIC ([8]; 24 h) of 1 µg/mL. The MIC ([8]; 48 h) was 2 µg/mL, the MIC ([9]; 24 h) was 1 µg/mL and the MIC ([9]; 48 h) was 2 µg/mL. The MIC ([10]; 24 h) was 0.2 µg/mL, the MIC ([10]; 48 h) was 0.2 µg/mL and the MIC ([11]; UC1, 24 h) was 2 µg/mL. It also gave an MIC ([11]; UC1, 48 h) of 2 µg/mL, an MIC ([12]; 24 h) of 1 µg/mL and an MIC ([12]; 48 h) of 2 µg/mL. For the same compound, the MIC ([13]; ATCC9, 24 h) was 2 µg/mL, the MIC ([13]; ATCC9, 48 h) was 2 µg/mL and the MIC ([14]; ATCC6, 24 h) was 1 µg/mL. For the same compound, the MIC ([14]; ATCC6, 48 h) was 2 µg/mL.
